Results published in US20240383852A1, “ANTI-VIRAL COMPOUNDS” (INFEX Therapeutics Limited, priority 2021, published 2024).
Counter-ions that a name gives are not always drawn. Like-named read-outs stand apart in the source and are kept apart here.

Columns and labels:
SARS-CoV-2 PLpro = target: T1, SARS-CoV-2 PLpro (Severe acute respiratory syndrome coronavirus 2, UniProt P0DTD1); test: biochemical
T1 construct: containing 60 nM papain-like protease

[1] = test system: human Hep G2 cells (ATCC HB-8065); test: Cytotoxicity in Hep G2 cells (CellTiter-Glo); assay type: cell-based
[2] = 60 nM papain-like protease, 50 μM Z-RLRGG-AMC, pH 7.5, 37° C., read-out: SARS-CoV-2 PLpro IC50
[3] = Hep G2 cells, 100 μM test article, 24-hour exposure

SMILES	IC50 (SARS-CoV-2 PLpro; [2])	% Cell Viability [1, 3]	IC50 (SARS-CoV-2 PLpro)	% Cell Viability ([1]; human, 24 h, 100 μM)
C[C@@H](NC(=O)c1cc(C2CCNC2)ccc1Cl)c1cccc2ccccc12 (stereo partly drawn) [Example 147, 2-chloro-N-[(1R)-1-(1-naphthyl)ethyl]-5-pyrrolidin-3-yl-benzamide]	< 5 µM	0.8%	–	–
Cc1ccc(C2=CCNCC2)cc1C(=O)N[C@H](C)c1cccc2ccccc12 [Example 154, 2-Methyl-N-[(1R)-1-(1-naphthyl)ethyl]-5-(1,2,3,6-tetrahydropyridin-4-yl)benzamide]	–	–	< 2 µM	2.1%
Cc1ccc(C2=CCNCC2)c(C)c1C(=O)N[C@H](C)c1cccc2ccccc12 [Example 155, 2,6-Dimethyl-N-[(1R)-1-(1-naphthyl)ethyl]-3-(1,2,3,6-tetrahydropyridin-4-yl)benzamide]	–	–	< 2 µM	0.6%
Cc1ccc(C2CCNCC2)cc1C(=O)N[C@H](C)c1cccc2ccccc12 [Example 156, 2-Methyl-N-[(1R)-1-(1-napthyl)ethyl]-5-(4-piperidyl)benzamide]	< 2 µM	0.6%	–	–
Cc1ccc(C2CCN(C)CC2)cc1C(=O)N[C@H](C)c1cccc2ccccc12 [Example 157, 2-Methyl-5-(1-methyl-4-piperidyl)-N-[(1R)-1-(1-naphthyl)ethyl]benzamide]	< 2 µM	1.5%	–	–
C[C@@H](NC(=O)c1cccc(N2CCNCC2)c1)c1cccc2ccccc12 [Example 158, N-[(1R)-1-(1-Naphthyl)ethyl]-3-piperazin-1-yl-benzamide Hydrochloride Salt]	< 5 µM	0.8%	–	–
CC(=O)N1CCN(c2cccc(C(=O)N[C@H](C)c3cccc4ccccc34)c2)CC1 [Example 159, 3-(4-Acetylpiperazin-1-yl)-N-[(1R)-1-(1-naphthyl)ethyl]benzamide]	> 100 µM	81.5%	–	–
COC(=O)CCN1CCN(c2cccc(C(=O)N[C@H](C)c3cccc4ccccc34)c2)CC1 [Example 160, Methyl 3-[4-[3-[[(1R)-1-(1-naphthyl)ethyl]carbamoyl]phenyl]piperazin-1-yl]propanoate]	< 100 µM	101.8%	–	–
C[C@@H](NC(=O)c1cccc(N2CCN(CCC(=O)O)CC2)c1)c1cccc2ccccc12 [Example 161, 3-[4-[3-[[(1R)-1-(1-Naphthyl)ethyl]carbamoyl]phenyl]piperazin-1-yl]propanoic Acid]	< 20 µM	97.9%	–	–
Cc1ccc(N2CCN(CCC(=O)O)CC2)cc1C(=O)N[C@H](C)c1cccc2ccccc12 [Example 162, 3-[4-[4-Methyl-3-[[(1R)-1-(1-naphthyl)ethyl]carbamoyl]phenyl]piperazin-1-yl]propanoic acid]	< 2 µM	104.9%	–	–
Cc1ccc(N2CCCN(CCC(=O)O)CC2)cc1C(=O)N[C@H](C)c1cccc2ccccc12 [Example 163, 3-[4-[4-Methyl-3-[[(1R)-1-(1-naphthyl)ethyl]carbamoyl]phenyl]-1,4-diazepan-1-yl]propanoic acid]	< 5 µM	122.4%	–	–
Cc1ccc(N2CCN(C)CC2)cc1C(=O)N[C@H](C)c1cccc(-c2ccc(N3CCN(CCC(=O)O)CC3)cc2)c1 [Example 165, 3-[4-[4-[3-[(1R)-1-[[2-Methyl-5-(4-methylpiperazin-1-yl)benzoyl]amino]ethyl]phenyl]phenyl]piperazin-1-yl]propanoic acid]	< 2 µM	132%	–	–
Cc1ccc(N2CCN(C)CC2)cc1C(=O)N[C@H](C)c1cccc(N2CCN(CCC(=O)O)CC2)c1 [Example 166, 3-[4-[3-[(1R)-1-[[2-Methyl-5-(4-methylpiperazin-1-yl)benzoyl]amino]ethyl]phenyl]piper-azin-1-yl]propanoic acid]	< 10 µM	100.9%	–	–
Cc1ccc(N2CCN(C)CC2)cc1C(=O)N[C@H](C)c1cccc(-c2cccc(N3CCN(CCC(=O)O)CC3)c2)c1 [Example 167, 3-[4-[3-[3-[(1R)-1-[[2-Methyl-5-(4-methylpiperazin-1-yl)benzoyl]amino]ethyl]phenyl]phe-nyl]piperazin-1-yl]propanoic acid]	< 2 µM	110.4%	–	–
Cc1ccc(N2CC3(CN(CCC(=O)O)C3)C2)cc1C(=O)N[C@H](C)c1cccc2ccccc12 [Example 168, 3-[2-[4-Methyl-3-[[(1R)-1-(1-naphthyl)ethyl]carbamoyl]phenyl]-2,6-diazaspiro[3.3]heptan-6-yl]propanoic acid]	< 5 µM	111.2%	–	–
Cc1ccc(N2CCN(CCC(=O)O)CC2)cc1C(=O)N[C@H](C)c1cccc(-c2cccc(CO)c2)c1 [Example 170, 3-[4-[3-[[(1R)-1-[3-[3-(Hydroxymethyl)phenyl]phenyl]ethyl]carbamoyl]-4-methyl-phenyl]piperazin-1-yl]propanoic Acid]	< 5 µM	107.9%	–	–

SMILES	IC50 (SARS-CoV-2 PLpro; [2])	% Cell Viability [1, 3]	IC50 (SARS-CoV-2 PLpro)	% Cell Viability ([1]; human, 24 h, 100 μM)
Cc1ccc(N2CCN(CCCC(=O)O)CC2)cc1C(=O)N[C@H](C)c1cccc2ccccc12 [Example 172, 4-[4-[4-Methyl-3-[[(1R)-1-(1-naphthyl)ethyl]carbamoyl]phenyl]piperazin-1-yl]butanoic Acid]	< 2 µM	104.6%	–	–
Cc1ccc(N2CCCN(S(N)(=O)=O)CC2)cc1C(=O)N[C@H](C)c1cccc2ccccc12 [Example 178, 2-methyl-N-[(1R)-1-(1-naphthyl)ethyl]-5-(4-sulfamoyl-1,4-diazepan-1-yl)benzamide]	< 20 µM	77.2%	–	–
COc1ccc([C@@H](C)NC(=O)c2cc(N3CCN(C)CC3)ccc2C)cc1Br [Example 180, N-[(1R)-1-(3-Bromo-4-methoxy-phenyl)ethyl]-2-methyl-5-(4-methylpiperazin-1-yl)benzamide]	< 2 µM	93.4%	–	–
COc1ccc([C@@H](C)NC(=O)c2cc(N3C[C@H]4C[C@@H]3CN4C)ccc2C)cc1Br [Example 181, N-[(1R)-1-(3-Bromo-4-methoxy-phenyl)ethyl]-2-methyl-5-[(1R,4R)-5-methyl-2,5-diazabicyclo[2.2.1]heptan-2-yl]benzamide]	< 2 µM	18.9%	–	–
Cc1ccc(N2CCN(C)CC2)cc1C(=O)N[C@H](C)c1ccc2c(c1)OCCO2 [Example 182, N-[(1R)-1-(2,3-Dihydro-1,4-benzodioxin-6-yl)ethyl]-2-methyl-5-(4-methylpiperazin-1-yl)benzamide]	< 5 µM	104.8%	–	–
COc1cc([C@@H](C)NC(=O)c2cc(N3CCN(C)CC3)ccc2C)ccc1OCc1ccccc1 [Example 184, N-[(1R)-1-(4-benzyloxy-3-methoxy-phenyl)ethyl]-2-methyl-5-(4-methylpiperazin-1-yl)benzamide]	< 2 µM	51.3%	–	–
COc1ccc([C@@H](C)NC(=O)c2cc(N3CCN(C)CC3)ccc2C)cc1F [Example 185, N-[(1R)-1-(3-Fluoro-4-methoxy-phenyl)ethyl]-2-methyl-5-(4-methylpiperazin-1-yl)benzamide]	< 10 µM	5.6%	–	–
COc1cc(Br)cc([C@@H](C)NC(=O)c2cc(N3CCN(C)CC3)ccc2C)c1 [Example 186, N-[(1R)-1-(3-Bromo-5-methoxy-phenyl)ethyl]-2-methyl-5-(4-methylpiperazin-1-yl)benzamide]	< 2 µM	1.0%	–	–
Cc1ccc(N2CCN(C)CC2)cc1C(=O)N[C@H](C)c1ccc(F)c(Br)c1 [Example 187, N-[(1R)-1-(3-Bromo-4-fluoro-phenyl)ethyl]-2-methyl-5-(4-methylpiperazin-1-yl)benzamide]	< 2 µM	44.0%	–	–
COc1ccc([C@@H](C)NC(=O)c2cc(N3CCN(C)CC3)ccc2C)cc1Cl [Example 188, N-[(1R)-1-(3-Chloro-4-methoxy-phenyl)ethyl]-2-methyl-5-(4-methylpiperazin-1-yl)benzamide]	< 2 µM	84.9%	–	–
Cc1ccc(N2CCN(C)CC2)cc1C(=O)N[C@H](C)c1ccc(OC(F)(F)F)c(Br)c1 [Example 190, N-[(1R)-1-[3-Bromo-4-(trifluoromethoxy)phenyl]ethyl]-2-methyl-5-(4-methylpiperazin-1-yl)benzamide]	< 5 µM	0.9%	–	–
COc1ccc([C@@H](C)NC(=O)c2cc(N3CCN(C)CC3)ccc2C)c2ccccc12 [Example 192, N-[(1R)-1-(4-Methoxy-1-naphthyl)ethyl]-2-methyl-5-(4-methylpiperazin-1-yl)benzamide]	< 2 µM	6.3%	–	–
COc1ccc(Br)cc1[C@@H](C)NC(=O)c1cc(N2CCN(C)CC2)ccc1C [Example 195, N-[(1R)-1-(5-Bromo-2-methoxy-phenyl)ethyl]-2-methyl-5-(4-methylpiperazin-1-yl)benzamide]	< 2 µM	41.5%	–	–
Cc1ccc([C@@H](C)NC(=O)c2cc(N3CCN(C)CC3)ccc2C)cc1Br [Example 196, N-[(1R)-1-(3-Bromo-4-methyl-phenyl)ethyl]-2-methyl-5-(4-methylpiperazin-1-yl)benzamide]	< 2 µM	4.7%	–	–
Cc1ccc(N2CCN(C)CC2)cc1C(=O)N[C@H](C)c1cc(F)cc(Br)c1 [Example 197, N-[(1R)-1-(3-Bromo-5-fluoro-phenyl)ethyl]-2-methyl-5-(4-methylpiperazin-1-yl)benzamide]	< 2 µM	44.7%	–	–
COc1cc(Br)cc([C@@H](C)NC(=O)c2cc(N3C[C@H]4C[C@@H]3CN4C)ccc2C)c1 [Example 198, N-[(1R)-1-(3-Bromo-5-methoxy-phenyl)ethyl]-2-methyl-5-[(1R,4R)-5-methyl-2,5-diazabicyclo[2.2.1]heptan-2-yl]benzamide]	< 2 µM	1.6%	–	–
